Experimental findings from PMC4812296, “A chemical family-based strategy for uncovering hidden bioactive molecules and multicomponent interactions in herbal medicines” (Scientific Reports, 2016) are described below.

For this experiment, the target named is T1, thrombin (Bos taurus, UniProt P00735).
T1 construct: gene F2
Kind of experiment: chromogenic S-2238 hydrolysis assay, bovine plasma thrombin. The format is biochemical.

The structures appear in SMILES notation.

Take `C[C@H]1COC2=C1C(=O)C(=O)c1c2ccc2c1CCCC2(C)C` (single isomer, unassigned) [peak 16, Cryptotanshinone]: the midpoint of inhibition, the IC50, lay at 102 ± 4 µM.

As to `Cc1coc2c1C(=O)C(=O)c1c-2ccc2c1CCCC2(C)C` [peak 18, Tanshinone IIA], the concentration for half-maximal inhibition (IC50) was 39 ± 1 µM.

Molecule `Cc1coc2c1C(=O)C(=O)c1c-2ccc2c(C)cccc12` [peak 17, Tanshinone I] returned an IC50 of 333 ± 28 µM.

For the molecule `Cc1cccc2c3c(ccc12)C1=C(C(=O)C3=O)[C@@H](C)CO1` (single isomer, unassigned) [peak 15, Dihydrotanshinone I], the IC50 amounted to 92 ± 5 µM.
